Converted amounts (≈) assume the structure as drawn.
Columns and labels:
Mus musculus [1] = test: Protection of mice infected with MRSA-32 cell suspension after oral administration of compound; assay type: functional
Staphylococcus aureus [2] = test: Minimum inhibitory concentration against methicillin susceptible Staphylococcus aureus after esterase action in rat serum; assay type: functional
Staphylococcus aureus [3] = test: Minimum inhibitory concentration against methicillin susceptible Staphylococcus aureus before esterase action in rat serum; assay type: functional
Staphylococcus aureus [4] = test: Minimum inhibitory concentration against methicillin susceptible Staphylococcus aureus; assay type: functional
Mus musculus [5] = test: Efficacy against mice infected with MRSA-33 upon s.c. administration; assay type: functional; conditions: sc
Mus musculus [6] = test: Efficacy against mice infected with MRSA-32 upon s.c. administration; assay type: functional; conditions: MRSA-32, sc
Mus musculus [7] = test: Efficacy against mice infected with Staphylococcus aureus ATCC 25923 upon s.c. administration; assay type: functional; conditions: sc
physchem [8] = test: physchem
physchem [9] = conditions: octanol/water, pH 7.4
physchem [10] = conditions: octanol/water, pH 2
physchem [11] = test: physchem; remark: listed apart in the source
[12] = Mus musculus, MRSA-32, po, read-out: ED50
[13] = Staphylococcus aureus, read-out: MIC

Structure (SMILES)	ED50 (Mus musculus [1]; [12]) [mg/kg]	MIC (Staphylococcus aureus [2]) [µg/mL]	MIC (Staphylococcus aureus [3]) [µg/mL]	other results
C[C@H]1CCc2c(N3CCC(O)CC3)c(F)cc3c(=O)c(C(=O)OC4CCN(C)CC4)cn1c23	> 100	1 (≈ 2.19 µM)	2 (≈ 4.37 µM)	–
C[C@H]1CCc2c(N3CCC(O)CC3)c(F)cc3c(=O)c(C(=O)[O-])cn1c23.[K+]	> 100	–	–	MIC (Staphylococcus aureus [4]; [13]): 0.03 µg/mL
C[C@H]1CCc2c(N3CCC(OC(=O)C(C)(C)C)CC3)c(F)cc3c(=O)c(C(=O)OCOC(=O)C(C)(C)C)cn1c23	> 150	> 16	> 16	–
COC(=O)COC(=O)c1cn2c3c(c(N4CCC(O)CC4)c(F)cc3c1=O)CC[C@@H]2C	> 150	4 (≈ 9.25 µM)	8 (≈ 18.5 µM)	–
C[C@H]1CCc2c(N3CCC(OC(=O)[C@H](N)CCCN=C(N)N)CC3)c(F)cc3c(=O)c(C(=O)O)cn1c23	> 100	0.1 (≈ 0.194 µM)	1 (≈ 1.94 µM)	–
C[C@H]1CCc2c(N3CCC(O)CC3)c(F)cc3c(=O)c(C(=O)OCCN4CCCCC4)cn1c23	> 150	0.25 (≈ 0.53 µM)	2 (≈ 4.24 µM)	–
C[C@H]1CCc2c(N3CCC(O)CC3)c(F)cc3c(=O)c(C(=O)OCCN4CCOCC4)cn1c23	> 100	0.1 (≈ 0.211 µM)	0.25 (≈ 0.528 µM)	–
C[C@H]1CCc2c(N3CCC(O)CC3)c(F)cc3c(=O)c(C(=O)OCCN4CCNCC4)cn1c23	> 100	0.12 (≈ 0.254 µM)	0.5 (≈ 1.06 µM)	–
COC(=O)c1cn2c3c(c(N4CCC(O)CC4)c(F)cc3c1=O)CC[C@@H]2C	> 100	1 (≈ 2.67 µM)	8 (≈ 21.4 µM)	–
C[C@H]1CCc2c(N3CCC(OC(=O)C(C)(C)C)CC3)c(F)cc3c(=O)c(C(=O)O)cn1c23	> 100	0.25 (≈ 0.562 µM)	0.5 (≈ 1.12 µM)	–
CCOC(=O)COC(=O)c1cn2c3c(c(N4CCC(O)CC4)c(F)cc3c1=O)CC[C@@H]2C	> 150	2 (≈ 4.48 µM)	8 (≈ 17.9 µM)	–
C[C@H]1CCc2c(N3CCC(OC(=O)[C@@H](N)CCC/N=C(\N)N[N+](=O)[O-])CC3)c(F)cc3c(=O)c(C(=O)O)cn1c23.O=C(O)C(F)(F)F	> 75	0.06	0.25	–
C[C@H]1CCc2c(N3CCC(O)CC3)c(F)cc3c(=O)c(C(=O)OCCN4CCCC4)cn1c23	> 150	0.06 (≈ 0.131 µM)	1 (≈ 2.19 µM)	–
C[C@H]1CCc2c(N3CCC(O)CC3)c(F)cc3c(=O)c(C(=O)O)cn1c23.NCCCC[C@H](N)C(=O)O	> 100	–	–	MIC (Staphylococcus aureus [4]; [13]): 0.03 µg/mL
C[C@H]1CCc2c(N3CCC(OC(=O)[C@H](CCC/N=C(\N)N[N+](=O)[O-])NC(=O)[C@@H](N)CCC/N=C(\N)N[N+](=O)[O-])CC3)c(F)cc3c(=O)c(C(=O)O)cn1c23.O=C(O)C(F)(F)F	> 75	0.12	0.5	–
CO[C@@H]1C(OC2CCN(c3c(F)cc4c(=O)c(C(=O)O)cn5c4c3CC[C@@H]5C)CC2)O[C@@H](CO)[C@@H](O)[C@@H]1O (single isomer, unassigned)	> 100	0.1 (≈ 0.186 µM)	0.1 (≈ 0.186 µM)	–
C[C@H]1CCc2c(N3CCC(O)CC3)c(F)cc3c(=O)c(C(=O)O)cn1c23.N=C(N)NCCC[C@H](N)C(=O)O (stereo in doubt; 19)	90.3	–	–	MIC (Staphylococcus aureus [4]; [13]): 0.03 µg/mL
C[C@H]1CCc2c(N3CCC(O)CC3)c(F)cc3c(=O)c(C(=O)O)cn1c23.N=C(N)NCCC[C@H](N)C(=O)O (stereo in doubt; 20)	–	–	–	MIC (Staphylococcus aureus [4]): 0.03 µg/mL; ED50 (Mus musculus [1]): >100 mg/kg
CC(=O)NC[C@H]1CN(c2ccc(N3CCOCC3)c(F)c2)C(=O)O1 [LINEZOLID]	–	–	–	ED50 (Mus musculus [5]): 3.1 mg/kg; ED50 (Mus musculus [6]): 1.14 mg/kg; ED50 (Mus musculus [7]): 2.4 mg/kg
CCn1cc(C(=O)O)c(=O)c2cc(F)c(N3CCNCC3)cc21 [NORFLOXACIN]	–	–	–	pKa (physchem [8]): 6.54; logD (physchem [9]): -1; logD (physchem [10]): -1.46
CCn1cc(C(=O)O)c(=O)c2cc(F)c(N3CCN(C)CC3)cc21 [PEFLOXACIN]	–	–	–	pKa (physchem [8]): 6.15; pKa (physchem [11]): 9.97
C[C@@H]1CN(c2c(F)c(N)c3c(=O)c(C(=O)O)cn(C4CC4)c3c2F)C[C@H](C)N1 [SPARFLOXACIN]	–	–	–	pKa (physchem [8]): 6.43; logD (physchem [9]): -0.02; logD (physchem [10]): -0.86; pKa (physchem [11]): 9.38
